Numbers after ± are expanded uncertainties.
Key:
[1] = 100 kPa, Liquid
[2] = xn = mol fraction of the nth substance listed; details: 100 kPa, Liquid, x2 = 0

| SMILES | mass density ([1]; 293.15 K) [kg/m3] | viscosity ([1]; 293.15 K) [mPa·s] | mass density ([1]; 298.15 K) [kg/m3] | viscosity ([1]; 298.15 K) [mPa·s] | mass density ([1]; 303.15 K) [kg/m3] | viscosity ([1]; 303.15 K) [mPa·s] | mass density ([1]; 308.15 K) [kg/m3] | viscosity ([1]; 308.15 K) [mPa·s] | mass density ([1]; 313.15 K) [kg/m3] | viscosity ([1]; 313.15 K) [mPa·s] | mass density ([1]; 318.15 K) [kg/m3] | viscosity ([1]; 318.15 K) [mPa·s] | mass density ([1]; 323.15 K) [kg/m3] | viscosity ([1]; 323.15 K) [mPa·s] | mass density ([2]; 293.15 K) [kg/m3] | viscosity ([2]; 293.15 K) [mPa·s] | mass density ([2]; 298.15 K) [kg/m3] | viscosity ([2]; 298.15 K) [mPa·s] | mass density ([2]; 303.15 K) [kg/m3] | viscosity ([2]; 303.15 K) [mPa·s] | also measured |
| --- | --- | --- | --- | --- | --- | --- | --- | --- | --- | --- | --- | --- | --- | --- | --- | --- | --- | --- | --- | --- | --- |
| CC[NH+]=C(N(C)C)N(C)C.O=S(=O)([N-]S(=O)(=O)C(F)(F)F)C(F)(F)F | 1414.89 ± 12 | 74.61 ± 5.5 | 1410.03 ± 12 | 58.86 ± 2.3 | 1405.19 ± 12 | 47.27 ± 2.3 | 1400.38 ± 12 | 38.71 ± 1.8 | 1395.59 ± 12 | 32.2 ± 1.5 | 1390.8 ± 12 | 27.09 ± 1.3 | 1386.03 ± 12 | 23.14 ± 1.1 |  |  |  |  |  |  |  |
| CCOS(=O)(=O)[O-].CC[NH+]=C(N(C)C)N(C)C [2-ethyl-1,1,3,3-tetramethylguanidinium ethyl sulfate] | 1170.76 ± 1.5 | 673.4 ± 300 | 1167.24 ± 1.5 | 441.5 ± 170 | 1163.76 ± 1.5 | 302.5 ± 95 | 1160.28 ± 1.5 | 214.6 ± 54 | 1156.8 ± 1.4 | 157.2 ± 31 | 1153.33 ± 1.4 | 118.3 ± 18 | 1149.87 ± 1.4 | 91.22 ± 9.6 |  |  |  |  |  |  |  |
| CCO [ethanol] | 789.62 ± 0.46 | 1.177 ± 0.047 | 785.25 ± 0.47 | 1.071 ± 0.043 | 780.89 ± 0.47 | 0.978 ± 0.04 | 776.52 ± 0.48 | 0.895 ± 0.036 | 772.12 ± 0.49 | 0.822 ± 0.033 | 767.71 ± 0.49 | 0.756 ± 0.031 | 763.26 ± 0.5 | 0.698 ± 0.028 |  |  |  |  |  |  |  |
| CCO [ethanol] + CCOS(=O)(=O)[O-].CC[NH+]=C(N(C)C)N(C)C |  |  |  |  |  |  |  |  |  |  |  |  |  |  | 789.62 ± 0.46 | 1.177 ± 0.047 | 785.25 ± 0.47 | 1.071 ± 0.043 | 780.89 ± 0.47 | 0.978 ± 0.04 | mass density ([2]; 308.15 K): 776.52 ± 0.48 kg/m3; viscosity ([2]; 308.15 K): 0.895 ± 0.036 mPa·s; mass density ([2]; 313.15 K): 772.12 ± 0.49 kg/m3; viscosity ([2]; 313.15 K): 0.822 ± 0.033 mPa·s; mass density ([2]; 318.15 K): 767.71 ± 0.49 kg/m3; viscosity ([2]; 318.15 K): 0.756 ± 0.031 mPa·s; mass density ([2]; 323.15 K): 763.26 ± 0.5 kg/m3; viscosity ([2]; 323.15 K): 0.698 ± 0.028 mPa·s |
| CCO [ethanol] + CC[NH+]=C(N(C)C)N(C)C.O=S(=O)([N-]S(=O)(=O)C(F)(F)F)C(F)(F)F |  |  |  |  |  |  |  |  |  |  |  |  |  |  | 789.62 ± 0.46 | 1.177 ± 0.047 | 785.25 ± 0.47 | 1.071 ± 0.043 | 780.89 ± 0.47 | 0.978 ± 0.04 | mass density ([2]; 308.15 K): 776.52 ± 0.48 kg/m3; viscosity ([2]; 308.15 K): 0.895 ± 0.036 mPa·s; mass density ([2]; 313.15 K): 772.12 ± 0.49 kg/m3; viscosity ([2]; 313.15 K): 0.822 ± 0.033 mPa·s; mass density ([2]; 318.15 K): 767.71 ± 0.49 kg/m3; viscosity ([2]; 318.15 K): 0.756 ± 0.031 mPa·s; mass density ([2]; 323.15 K): 763.26 ± 0.5 kg/m3; viscosity ([2]; 323.15 K): 0.698 ± 0.028 mPa·s |
| CCCO [propan-1-ol] | 803.49 ± 0.43 | 2.164 ± 0.087 | 799.49 ± 0.44 | 1.948 ± 0.078 | 795.46 ± 0.45 | 1.707 ± 0.069 | 791.39 ± 0.45 | 1.525 ± 0.061 | 787.29 ± 0.46 | 1.366 ± 0.055 | 783.14 ± 0.46 | 1.228 ± 0.05 | 778.93 ± 0.47 | 1.107 ± 0.045 |  |  |  |  |  |  |  |
| CCCO [propan-1-ol] + CCOS(=O)(=O)[O-].CC[NH+]=C(N(C)C)N(C)C |  |  |  |  |  |  |  |  |  |  |  |  |  |  | 803.49 ± 0.43 | 2.164 ± 0.17 | 799.49 ± 0.44 | 1.948 ± 0.16 | 795.46 ± 0.45 | 1.707 ± 0.14 | mass density ([2]; 308.15 K): 791.39 ± 0.45 kg/m3; viscosity ([2]; 308.15 K): 1.525 ± 0.12 mPa·s; mass density ([2]; 313.15 K): 787.29 ± 0.46 kg/m3; viscosity ([2]; 313.15 K): 1.366 ± 0.11 mPa·s; mass density ([2]; 318.15 K): 783.14 ± 0.46 kg/m3; viscosity ([2]; 318.15 K): 1.228 ± 0.099 mPa·s; mass density ([2]; 323.15 K): 778.93 ± 0.47 kg/m3; viscosity ([2]; 323.15 K): 1.107 ± 0.089 mPa·s |
| CCCO [propan-1-ol] + CC[NH+]=C(N(C)C)N(C)C.O=S(=O)([N-]S(=O)(=O)C(F)(F)F)C(F)(F)F |  |  |  |  |  |  |  |  |  |  |  |  |  |  | 803.49 ± 0.43 | 2.164 ± 0.087 | 799.49 ± 0.44 | 1.948 ± 0.078 | 795.46 ± 0.45 | 1.707 ± 0.069 | mass density ([2]; 308.15 K): 791.39 ± 0.45 kg/m3; viscosity ([2]; 308.15 K): 1.525 ± 0.061 mPa·s; mass density ([2]; 313.15 K): 787.29 ± 0.46 kg/m3; viscosity ([2]; 313.15 K): 1.366 ± 0.055 mPa·s; mass density ([2]; 318.15 K): 783.14 ± 0.46 kg/m3; viscosity ([2]; 318.15 K): 1.228 ± 0.05 mPa·s; mass density ([2]; 323.15 K): 778.93 ± 0.47 kg/m3; viscosity ([2]; 323.15 K): 1.107 ± 0.045 mPa·s |

— the NIST ThermoML archive (doi:10.1021/acs.jced.5b00259)
